Results on 4 molecules are retold here after patent US20250082781A1, “METHODS OF LOWERING BLOOD GLUCOSE AND TREATING TYPE 2 DIABETES BY ACTIVATION OF PDE4D3” (Salk Institute for Biological Studies, priority 2021, published 2025).

Data set [1] relates to blood glucose levels. As to the kind of experiment: Blood glucose levels in ob/ob mice. The class given is in vivo, mouse. As to conditions: ad lib fed ob/ob mice, atglistatin 120 mg/kg p.o. As to the method:
(§1) Mice were kept in 12 h light/dark cycle in a temperature-controlled environment. Mice had free access to food and water unless noted otherwise. C57/B6 mice background was used unless noted otherwise. C57BL/6J and ob/ob (000632-B6. Cg-Lepob/J) male mice were obtained from Jackson Laboratory. PDE4D knock-out mice (034588-UCD) were obtained from MMRRC. For diet-induced obesity (DIO) studies, mice were fed a high fat diet (HFD) (60% fat, F3282; Bio-Serv) for minimum of 12 weeks to induce insulin resistance when diet-induced obese model is used. Insulin levels and blood glucose levels were monitored to confirm insulin resistance. To generate adipose-specific FGFR1 deletion, adiponectin-cre mice (B6; FVB-Tg (Adipoq-cre)1Evdr/J; Stock: 010803) were crossed to Fgfr1 flox/flox (B6.129S4-Fgfr1tm5.1Sor/J; Stock: 00767) mice. For AAV mediated expression of target proteins in adipose tissue, 5×10E+11 genomic copies of AAV were injected via tail vein or retro-orbital route.
(§2) Recombinant FGF1 (rFGF1) was dissolved in phosphate-buffered saline (PBS) at a concentration of 0.2 mg/ml and was injected subcutaneously at a 0.5 mg kg^−1 dose. Blood glucose was monitored at indicated time points after injection. For initial measurements (2-4 h) food was removed after injection to exclude any indirect effects stemming from anorexigenic effects of FGF1. PDE4 inhibitor roflumilast stock in DMSO was diluted at 1 mg/ml in 30% captisol, pH 10 and delivered to mice thorough oral gavage at 5 mg kg^−1 dose. PDE3 inhibitor cilostamide stock in DMSO was diluted at 2 mg/ml in 30% captisol and delivered through intraperitoneal injection at 10 mg kg^−1 dose.

Data set [2] deals with serum FFA levels. Description: Serum FFA levels in DIO mice. To be noted: ad lib fed DIO mice, roflumilast 5 mg/kg p.o., 1 h. The class given is in vivo, mouse. As to the method:
as §1, §2

Data set [3] in a line: Serum insulin levels in DIO mice. The format is in vivo, mouse. To be noted: ad lib fed DIO mice, roflumilast 5 mg/kg p.o., 1 h. How it is done:
as §1
Recombinant FGF1 (rFGF1) was dissolved in phosphate-buffered saline (PBS) at a concentration of 0.2 mg/ml and was injected subcutaneously at a 0.5 mg kg^−1 dose. Blood glucose was monitored at indicated time points after injection. For initial measurements (2-4 h) food was removed after injection to exclude any indirect effects stemming from anorexigenic effects of FGF1. […]

Data set [4] has as its system HSL phosphorylation at S660. As to the kind of experiment: Western blot of pHSL-S660 in 3T3-L1 adipocytes. As to conditions: basal and ISO-stimulated cells, roflumilast 2 μM. The format is cell-based. As to the method:
Tissues were lysed in cold lysis buffer (50 mM Tris, pH 7.5, 150 mM NaCl, 1% NP40, 0.5% NaDoc, 0.1% SDS, 5% glycerol, 1 mM EDTA, protease and phosphatase inhibitors (complete and PhosSTOP (Roche)) by homogenization by bead-beater for 30 s. Samples were cleared for 10 min at 18,000 g at 4° C. and the middle clear phase was transferred to new tubes. A second 30 min centrifugation was performed and the middle clear phase was transferred to new tubes. Five ul protein extract was used for BCA assay to determine protein concentration. Samples were boiled in Laemmli buffer. SDS-PAGE and blotting were performed using gradient gels and Trans-Blot Turbo Transfer System (Bio-Rad). Antibodies used were PDE4D (12918-1-AP, Proteintech), pHSL-660 (4126S, Cell signaling), HSL (4107S, Cell Signaling), tubulin (CP06, Millipore Sigma), and GFP (A01388, GenScript). PDE4D3-pS44 phospho-specific antibody was generated using PDE4D3-S44 FRRHpSWISFDVDNGTSAGR peptide (SEQ ID NO: 20) (Mackenzie et al., 2002) by Pocono Rabbit Farm, using 70-day rabbit antibody production protocol and purified via affinity purification. Primary antibodies were incubated for 2 h at room temperature (RT) or overnight (ON) at 4° C. Blots were developed using SuperSignal West Pico PLUS Chemiluminescent Substrate (ThermoFisher Scientific) and imaged with BioRad GelDoc system.
(In general: A western blot detects proteins with antibodies after separation by electrophoresis.)

The subject of data set [5] is blood glucose levels. As to the kind of experiment: Blood glucose levels in DIO mice. The class given is in vivo, mouse. As to conditions: roflumilast 5 mg/kg p.o. As to the method:
as §1, §2

Data set [6] deals with FGFR1 on mouse adipocytes (mouse) (UniProt P16092). As to the kind of experiment: cell-based or functional assay.
Sequence of UniProt P16092 (P16092 22-822): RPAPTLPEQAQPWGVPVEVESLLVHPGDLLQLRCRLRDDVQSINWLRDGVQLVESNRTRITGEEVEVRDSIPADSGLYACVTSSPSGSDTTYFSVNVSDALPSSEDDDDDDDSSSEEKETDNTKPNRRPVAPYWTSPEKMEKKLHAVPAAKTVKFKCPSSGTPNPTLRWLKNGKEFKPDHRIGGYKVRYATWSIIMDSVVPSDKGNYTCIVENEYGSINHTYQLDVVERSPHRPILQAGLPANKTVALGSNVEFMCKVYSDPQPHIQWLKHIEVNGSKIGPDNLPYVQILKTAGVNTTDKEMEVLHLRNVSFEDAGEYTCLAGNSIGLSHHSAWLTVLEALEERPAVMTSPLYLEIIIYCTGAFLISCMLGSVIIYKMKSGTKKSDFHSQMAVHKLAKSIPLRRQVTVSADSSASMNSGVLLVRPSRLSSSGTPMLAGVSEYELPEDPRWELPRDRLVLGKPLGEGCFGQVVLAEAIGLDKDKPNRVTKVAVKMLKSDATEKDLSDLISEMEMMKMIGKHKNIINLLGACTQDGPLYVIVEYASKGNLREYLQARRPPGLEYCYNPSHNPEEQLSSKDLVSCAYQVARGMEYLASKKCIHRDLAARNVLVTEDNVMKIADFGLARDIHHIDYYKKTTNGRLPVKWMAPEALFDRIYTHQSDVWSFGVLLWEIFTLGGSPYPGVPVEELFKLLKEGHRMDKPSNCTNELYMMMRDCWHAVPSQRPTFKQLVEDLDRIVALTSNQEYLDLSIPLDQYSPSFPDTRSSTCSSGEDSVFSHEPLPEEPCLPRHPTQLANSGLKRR
The target of data set [7] is T1, GFP-tagged perilipin (perilipin-GFP), Q8CGN5.
T1 chain: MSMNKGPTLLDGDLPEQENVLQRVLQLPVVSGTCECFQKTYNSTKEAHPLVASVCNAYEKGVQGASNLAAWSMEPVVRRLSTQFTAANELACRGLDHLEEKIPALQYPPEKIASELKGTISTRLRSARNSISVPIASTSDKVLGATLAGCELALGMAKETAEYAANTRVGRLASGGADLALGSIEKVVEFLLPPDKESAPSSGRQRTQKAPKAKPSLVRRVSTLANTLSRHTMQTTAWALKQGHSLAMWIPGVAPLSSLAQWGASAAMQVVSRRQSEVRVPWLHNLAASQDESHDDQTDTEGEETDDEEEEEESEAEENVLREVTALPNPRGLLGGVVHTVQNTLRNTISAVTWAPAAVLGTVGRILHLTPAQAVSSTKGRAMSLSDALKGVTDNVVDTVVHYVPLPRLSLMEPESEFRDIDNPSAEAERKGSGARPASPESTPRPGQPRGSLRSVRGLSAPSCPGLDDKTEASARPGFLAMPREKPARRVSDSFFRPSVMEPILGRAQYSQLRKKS

For `CN(C)C(=O)Nc1cccc(-c2ccc(N(C)C)cc2)c1` [Atglistatin, reference compound], in data set [1], the blood glucose levels entry is “rapidly lowered blood glucose levels”.
As for `O=C(Nc1c(Cl)cncc1Cl)c1ccc(OC(F)F)c(OCC2CC2)c1` [roflumilast, reference compound], the “serum FFA” value in data set [2] was “transiently increased”. Further, the insulin levels result in data set [3] is reported as “transiently increased”. In addition, in data set [4], the “ability of FGF1 to suppress HSL phosphorylation in presence of roflumilast” value is reported as “lost”. Besides, in data set [5] (ad lib fed DIO mice), the blood glucose result was “transiently increased”. For the same molecule, the blood glucose levels result in data set [5] (fasted DIO mice) is given as “more sustained increase in blood glucose levels”.
The molecule Recombinant FGF1 (rFGF1) (ligand) gave a serum FFA levels in DIO adR1WT and adR1KO mice in data set [6] of 30%.

B1: mCherry-tagged HSL (HSL-mCherry) (protein)
chain: MDLRTMTQSLVTLAEDNMAFFSSQGPGETARRLSNVFAGVREQALGLEPTLGQLLGVAHHFDLDTETPANGYRSLVHTARCCLAHLLHKSRYVASNRKSIFFRASHNLAELEAYLAALTQLRAMAYYAQRLLTINRPGVLFFEGDEGLTADFLQEYVTLHKGCFYGRCLGFQFTPAIRPFLQTLSIGLVSFGEHYKRNETGLSVTASSLFTGGRFAIDPELRGAEFERIIQNLDVHFWKAFWNITEIEVLSSLANMASTTVRVSRLLSLPPEAFEMPLTSDPRLTVTISPPLAHTGPAPVLARLISYDLREGQDSKVLNSLAKSEGPRLELRPRPHQAPRSRALVVHIHGGGFVAQTSKSHEPYLKNWAQELGVPIFSIDYSLAPEAPFPRALEECFFAYCWAVKHCDLLGSTGERICLAGDSAGGNLCITVSLRAAAYGVRVPDGIMAAYPVTTLQSSASPSRLLSLMDPLLPLSVLSKCVSAYSGTEAEDHFDSDQKALGVMGLVQRDTSLFLRDLRLGASSWLNSFLELSGRKPQKTTSPTAESVRPTESMRRSVSEAALAQPEGLLGTDTLKKLTIKDLSNSEPSDSPEMSQSMETLGPSTPSDVNFFLRPGNSQEEAEAKDEVRPMDGVPRVRAAFPEGFHPRRSSQGVLHMPLYTSPIVKNPFMSPLLAPDSMLKTLPPVHLVACALDPMLDDSVMFARRLRDLGQPVTLKVVEDLPHGFLSLAALCRETRQATEFCVQRIRLILTPPAAPLN
Regarding B1, the “co-localization of perilipin-GFP and HSL-mCherry in live 3T3-L1 adipocytes (fluorescence overlap, confocal microscopy)” value in data set [7] is “FGF1 reduced the isoproterenol-induced co-localization of perilipin-GFP and HSL-mCherry”.
